Laboratory results from patent US20240269148A1, “Enhancement of Anti-Angiogenic Cancer Immunotherapy by Abortogenic Agents” (Therapeutic Solutions International, Inc., priority 2023, published 2024).

Tests used:
[1] = test system: T cell; experiment: T cell reactivity in vitro after RU-486 administration (4T1 model); type: cell-based; settings: administration of RU-486
[2] = test system: 4T1 cells; experiment: 4T1 triple negative breast cancer model in BALB/c mice; type: in vivo
Protocol: Female BALB/c mice were administered 4T1 cells at a concentration of 1 million cells per mouse. VALLOVAX™ at a concentration of 500,000 cells per mouse was administered alone, RU-486 was administered alone (25 μg/g dose) and in combination of RU-486 and VALLOVAX™.

CC#C[C@]1(O)CC[C@H]2[C@@H]3CCC4=CC(=O)CCC4=C3[C@@H](c3ccc(N(C)C)cc3)C[C@@]21C [RU-486, mifepristone]
T cell reactivity in vitro [1]: increased
Breast cancer induced myeloid suppressor cells ([2]; administration of RU-486): decreased
Generation of CD8 cells capable of adoptively transferring immunity ([2]; administration of RU-486): enhance
Therapeutic activity of ValloVax ([2]; triple negative breast cancer 4T1 model): enhances
